Reference: ChEMBL document CHEMBL1201862, “PubChem BioAssay data set” (2004)
Active and inactive are the calls of the source.

Experiments:
Aminopeptidase N = molecular target: T1, Aminopeptidase N (Plasmodium falciparum FcB1/Columbia, UniProt O96935); assay: P. falciparum M1AAP inhibitors, biochemical, fluorogenic H-Leu-NHMec substrate, 1536-well (AID 1445); set-up: species or system Plasmodium falciparum 3D7, 3D7
T1 sequence (O96935 whole entry): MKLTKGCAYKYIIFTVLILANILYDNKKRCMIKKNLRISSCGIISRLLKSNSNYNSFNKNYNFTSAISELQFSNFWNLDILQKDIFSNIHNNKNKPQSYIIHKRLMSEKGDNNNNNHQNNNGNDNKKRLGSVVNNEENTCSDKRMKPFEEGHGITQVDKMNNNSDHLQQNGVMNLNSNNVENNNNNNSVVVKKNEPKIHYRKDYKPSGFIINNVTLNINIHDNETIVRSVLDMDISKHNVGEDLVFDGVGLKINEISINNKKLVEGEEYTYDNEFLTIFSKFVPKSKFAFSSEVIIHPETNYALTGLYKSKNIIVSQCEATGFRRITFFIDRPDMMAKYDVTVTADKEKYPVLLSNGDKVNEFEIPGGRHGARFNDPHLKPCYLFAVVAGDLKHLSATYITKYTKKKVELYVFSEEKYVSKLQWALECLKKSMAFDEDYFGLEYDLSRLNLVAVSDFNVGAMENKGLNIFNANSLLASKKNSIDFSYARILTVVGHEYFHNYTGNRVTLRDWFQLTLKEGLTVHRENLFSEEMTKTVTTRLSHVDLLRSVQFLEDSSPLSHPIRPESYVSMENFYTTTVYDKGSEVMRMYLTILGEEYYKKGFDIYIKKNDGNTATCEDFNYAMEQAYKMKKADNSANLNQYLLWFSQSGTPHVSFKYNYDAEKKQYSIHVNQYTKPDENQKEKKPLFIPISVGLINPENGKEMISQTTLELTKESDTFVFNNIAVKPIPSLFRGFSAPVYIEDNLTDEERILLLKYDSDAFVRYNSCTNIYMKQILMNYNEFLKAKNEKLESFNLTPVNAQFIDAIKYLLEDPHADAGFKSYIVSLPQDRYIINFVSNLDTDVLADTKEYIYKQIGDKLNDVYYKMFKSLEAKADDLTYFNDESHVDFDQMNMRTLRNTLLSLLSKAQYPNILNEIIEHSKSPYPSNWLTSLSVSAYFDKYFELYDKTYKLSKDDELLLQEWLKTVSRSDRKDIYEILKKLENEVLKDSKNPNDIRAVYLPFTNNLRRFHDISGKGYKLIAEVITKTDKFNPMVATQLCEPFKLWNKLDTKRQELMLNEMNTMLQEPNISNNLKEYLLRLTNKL

Aspartyl aminopeptidase = Aspartyl aminopeptidase (Plasmodium falciparum 3D7, UniProt Q8I2J3); assay: Counterscreen for inhibitors of M1 and M17 aminopeptidases: QFRET-based biochemical high throughput dose response assay for inhibitors of the Plasmodium falciparum M18 Aspartyl Aminopeptidase (PFM18AAP). [Related PubChem assays: 1619 (Screening assay (M17LAP inhibitors).), 1445 (Screening assay (M1AAP inhibitors).)]
Procathepsin L = Procathepsin L (Homo sapiens, UniProt P07711); assay: cathepsin L inhibitors, dose response, counter-screen for M1/M17 aminopeptidase inhibitor project, biochemical, QFRET, 1536-well (AID 2214)
[1] = molecular target: DNA (cytosine-5)-methyltransferase 1 (Homo sapiens, UniProt P26358); assay: DNMT1 methyltransferase inhibitors, confirmation, biochemical, fluorescent molecular beacon (AID 602386); assay type: functional
Albumin = Albumin (Bos taurus, UniProt P02769); assay: Counterscreen for inhibitors of T-cell receptor (TCR)-CD3 interaction: Fluorescence-based biochemical high throughput dose response assay to identify inhibitors of T-cell receptor (TCR)-CD3 interaction using a TAMRA-labeled BSA probe.; assay type: functional
[2] = molecular target: T2, Probable nicotinate-nucleotide adenylyltransferase (Staphylococcus aureus (strain N315), UniProt P65502); assay type: functional, Staphylococcus aureus subsp. aureus N315; details: read-out: IC50_Mean;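 on IC50 Mean: confirmatory dose-response retesting of NadD inhibitor hits first found in an ultra-high-throughput screen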
[3] = molecular target: T3, Induced myeloid leukemia cell differentiation protein Mcl-1 (Homo sapiens, UniProt Q07820); assay type: functional
[4] = molecular target: T2, Probable nicotinate-nucleotide adenylyltransferase; assay type: functional, Staphylococcus aureus subsp. aureus N315
[5] = molecular target: T3, Induced myeloid leukemia cell differentiation protein Mcl-1; assay: MCL1-BIM BH3 interaction inhibitors, dose response, biochemical, fluorescence polarization, BIM-BH3 peptide, 1536-well (AID 2217)
Bcl-2-like protein 1 = Bcl-2-like protein 1 (Homo sapiens, UniProt Q07817); assay: BCL-XL inhibitors, dose response, selectivity assay for MCL1 inhibitor project, biochemical, fluorescence polarization, 1536-well (AID 2218)
[6] = molecular target: T4, Rac GTPase-activating protein 1 (Homo sapiens, UniProt Q9H0H5); assay: MgcRacGAP GTPase-activating activity inhibitors, confirmation, biochemical, ADP Hunter fluorescence, primary and confirmatory (AID 624330); assay type: functional
T4 sequence (Q9H0H5 whole entry): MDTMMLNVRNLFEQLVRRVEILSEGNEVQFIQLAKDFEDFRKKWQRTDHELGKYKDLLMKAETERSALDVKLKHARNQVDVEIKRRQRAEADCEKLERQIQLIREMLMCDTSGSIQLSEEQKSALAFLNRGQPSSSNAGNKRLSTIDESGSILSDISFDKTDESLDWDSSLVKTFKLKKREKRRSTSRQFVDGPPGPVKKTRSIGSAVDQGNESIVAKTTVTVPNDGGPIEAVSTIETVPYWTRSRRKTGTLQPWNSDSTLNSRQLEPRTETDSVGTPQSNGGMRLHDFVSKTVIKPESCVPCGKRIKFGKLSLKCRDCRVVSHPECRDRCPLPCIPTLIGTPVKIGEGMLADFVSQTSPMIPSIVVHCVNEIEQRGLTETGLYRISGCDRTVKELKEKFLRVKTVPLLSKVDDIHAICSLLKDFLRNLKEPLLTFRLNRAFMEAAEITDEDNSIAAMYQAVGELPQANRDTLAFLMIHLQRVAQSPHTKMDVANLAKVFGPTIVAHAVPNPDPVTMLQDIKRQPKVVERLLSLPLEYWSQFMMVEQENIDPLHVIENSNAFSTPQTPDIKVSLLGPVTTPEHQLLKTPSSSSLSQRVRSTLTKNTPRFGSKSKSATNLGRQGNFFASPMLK

NADPH oxidase 1 = NADPH oxidase 1 (Homo sapiens, UniProt Q9Y5S8); assay: Luminescence-based cell-based dose response assay to identify inhibitors of NADPH oxidase 1 (NOX1).; assay type: functional
Estrogen receptor beta [7] = molecular target: T5, Estrogen receptor beta (Homo sapiens, UniProt Q92731); assay: ERβ–SRC-3 coactivator interaction inhibitors, confirmation, orthogonal assay, biochemical, ELISA, streptavidin-HRP readout (AID 1060)
[8] = molecular target: Low molecular weight phosphotyrosine protein phosphatase (Homo sapiens, UniProt P24666); assay type: functional; details: read-out: IC50_Mean;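 further: Dose-response confirmation assay measuring inhibition of LMPTP enzyme activity by fluorescence intensity read-out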
Estrogen receptor beta [9] = molecular target: T5, Estrogen receptor beta
Estrogen receptor = Estrogen receptor (Homo sapiens, UniProt P03372);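 further: potency for inhibiting coactivator peptide recruitment to the receptor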
Vero = assay: West Nile virus antiviral activity, cell-based, CPE readout (AID 1621); assay type: functional; details: Chlorocebus sabaeus
[10] = M. tuberculosis growth inhibition, HTS (AID 449762); assay type: functional
[11] = microbe, parasite or virus in culture; assay type: functional; details: Mycobacterium tuberculosis
[12] = A High Throughput Confirmatory Assay used to Identify Novel Compounds that Inhibit Mycobacterium Tuberculosis in the absence of Glycerol.; assay type: functional

T3 sequence (Q07820 whole entry): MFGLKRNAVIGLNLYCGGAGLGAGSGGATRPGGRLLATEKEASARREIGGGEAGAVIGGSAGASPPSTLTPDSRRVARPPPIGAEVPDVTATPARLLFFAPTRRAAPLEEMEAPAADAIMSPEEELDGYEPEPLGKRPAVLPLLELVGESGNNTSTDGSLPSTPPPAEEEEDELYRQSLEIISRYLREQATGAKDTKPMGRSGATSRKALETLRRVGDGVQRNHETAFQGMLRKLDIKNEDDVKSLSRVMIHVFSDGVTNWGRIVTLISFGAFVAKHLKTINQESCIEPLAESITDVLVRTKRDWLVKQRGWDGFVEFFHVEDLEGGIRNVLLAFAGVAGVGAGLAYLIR
T5 sequence (Q92731 whole entry): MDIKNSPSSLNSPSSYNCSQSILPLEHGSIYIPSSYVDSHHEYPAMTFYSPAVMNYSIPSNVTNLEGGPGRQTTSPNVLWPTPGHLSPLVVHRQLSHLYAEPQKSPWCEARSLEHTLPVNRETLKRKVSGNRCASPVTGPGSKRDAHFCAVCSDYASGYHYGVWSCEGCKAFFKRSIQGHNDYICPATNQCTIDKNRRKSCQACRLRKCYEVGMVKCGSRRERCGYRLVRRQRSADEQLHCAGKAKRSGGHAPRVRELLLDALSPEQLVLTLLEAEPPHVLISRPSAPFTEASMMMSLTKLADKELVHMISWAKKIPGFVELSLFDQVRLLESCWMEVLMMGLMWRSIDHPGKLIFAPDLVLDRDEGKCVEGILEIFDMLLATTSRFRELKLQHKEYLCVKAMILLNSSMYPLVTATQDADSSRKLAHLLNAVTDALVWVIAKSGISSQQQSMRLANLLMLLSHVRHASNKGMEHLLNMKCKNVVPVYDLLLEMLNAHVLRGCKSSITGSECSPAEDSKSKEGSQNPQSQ
T2 sequence (P65502 whole entry): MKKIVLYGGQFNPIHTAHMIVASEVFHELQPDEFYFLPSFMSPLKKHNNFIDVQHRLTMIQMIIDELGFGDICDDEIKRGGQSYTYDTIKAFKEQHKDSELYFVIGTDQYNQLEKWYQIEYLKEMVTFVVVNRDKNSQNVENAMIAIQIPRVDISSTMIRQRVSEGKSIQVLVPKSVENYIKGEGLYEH
Sequence of Low molecular weight phosphotyrosine protein phosphatase (P24666 whole entry): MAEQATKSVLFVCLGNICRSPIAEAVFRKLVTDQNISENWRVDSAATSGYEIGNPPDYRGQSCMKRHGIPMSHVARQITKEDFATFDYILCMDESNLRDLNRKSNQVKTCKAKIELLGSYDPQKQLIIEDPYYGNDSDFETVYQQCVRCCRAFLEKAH
Sequence of Bcl-2-like protein 1 (Q07817 whole entry): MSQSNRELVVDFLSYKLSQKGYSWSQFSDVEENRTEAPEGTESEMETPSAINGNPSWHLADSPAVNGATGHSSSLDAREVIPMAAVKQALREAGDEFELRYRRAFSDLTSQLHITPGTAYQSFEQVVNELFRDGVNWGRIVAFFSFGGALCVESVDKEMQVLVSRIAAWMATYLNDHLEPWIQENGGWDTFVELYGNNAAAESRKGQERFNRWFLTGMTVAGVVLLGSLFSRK
Sequence of Procathepsin L (P07711 whole entry): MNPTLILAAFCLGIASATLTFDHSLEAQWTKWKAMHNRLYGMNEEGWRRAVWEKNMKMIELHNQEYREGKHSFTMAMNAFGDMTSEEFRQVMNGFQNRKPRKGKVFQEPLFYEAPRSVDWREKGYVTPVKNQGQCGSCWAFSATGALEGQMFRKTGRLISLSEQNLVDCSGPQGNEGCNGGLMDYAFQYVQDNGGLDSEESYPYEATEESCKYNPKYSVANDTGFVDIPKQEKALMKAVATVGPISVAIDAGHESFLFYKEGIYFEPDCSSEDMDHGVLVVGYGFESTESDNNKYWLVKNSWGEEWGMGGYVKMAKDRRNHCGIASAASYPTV
Sequence of Estrogen receptor (P03372 whole entry): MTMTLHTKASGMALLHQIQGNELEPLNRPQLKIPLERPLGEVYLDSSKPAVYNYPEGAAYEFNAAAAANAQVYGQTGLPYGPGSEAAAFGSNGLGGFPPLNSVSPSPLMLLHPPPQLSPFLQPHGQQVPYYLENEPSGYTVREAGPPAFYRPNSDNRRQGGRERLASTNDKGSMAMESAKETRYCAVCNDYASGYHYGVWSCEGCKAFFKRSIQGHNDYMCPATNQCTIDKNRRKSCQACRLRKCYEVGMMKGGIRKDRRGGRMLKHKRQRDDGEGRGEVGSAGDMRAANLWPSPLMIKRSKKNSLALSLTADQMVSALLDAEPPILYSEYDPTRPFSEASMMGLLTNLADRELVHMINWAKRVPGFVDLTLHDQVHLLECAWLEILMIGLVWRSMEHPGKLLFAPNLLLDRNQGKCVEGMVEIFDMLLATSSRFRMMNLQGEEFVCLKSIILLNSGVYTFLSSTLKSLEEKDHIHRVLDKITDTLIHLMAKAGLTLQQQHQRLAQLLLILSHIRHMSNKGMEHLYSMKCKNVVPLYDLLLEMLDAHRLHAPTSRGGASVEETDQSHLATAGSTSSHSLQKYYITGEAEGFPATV
Sequence of NADPH oxidase 1 (Q9Y5S8 whole entry): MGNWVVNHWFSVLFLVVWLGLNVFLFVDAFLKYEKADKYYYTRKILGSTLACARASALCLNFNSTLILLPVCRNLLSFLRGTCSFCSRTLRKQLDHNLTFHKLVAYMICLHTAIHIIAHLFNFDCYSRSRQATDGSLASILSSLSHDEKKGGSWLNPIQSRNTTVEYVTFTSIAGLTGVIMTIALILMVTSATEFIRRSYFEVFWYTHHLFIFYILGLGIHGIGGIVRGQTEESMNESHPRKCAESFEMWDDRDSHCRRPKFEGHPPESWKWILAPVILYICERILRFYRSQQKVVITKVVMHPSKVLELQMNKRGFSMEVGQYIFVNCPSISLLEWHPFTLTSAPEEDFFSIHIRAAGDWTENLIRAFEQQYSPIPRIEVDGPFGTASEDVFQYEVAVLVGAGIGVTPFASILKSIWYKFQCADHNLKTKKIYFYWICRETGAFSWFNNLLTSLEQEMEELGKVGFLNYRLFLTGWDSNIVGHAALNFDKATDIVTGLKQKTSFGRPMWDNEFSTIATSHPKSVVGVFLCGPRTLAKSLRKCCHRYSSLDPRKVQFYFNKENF
Sequence of Aspartyl aminopeptidase (Q8I2J3 whole entry): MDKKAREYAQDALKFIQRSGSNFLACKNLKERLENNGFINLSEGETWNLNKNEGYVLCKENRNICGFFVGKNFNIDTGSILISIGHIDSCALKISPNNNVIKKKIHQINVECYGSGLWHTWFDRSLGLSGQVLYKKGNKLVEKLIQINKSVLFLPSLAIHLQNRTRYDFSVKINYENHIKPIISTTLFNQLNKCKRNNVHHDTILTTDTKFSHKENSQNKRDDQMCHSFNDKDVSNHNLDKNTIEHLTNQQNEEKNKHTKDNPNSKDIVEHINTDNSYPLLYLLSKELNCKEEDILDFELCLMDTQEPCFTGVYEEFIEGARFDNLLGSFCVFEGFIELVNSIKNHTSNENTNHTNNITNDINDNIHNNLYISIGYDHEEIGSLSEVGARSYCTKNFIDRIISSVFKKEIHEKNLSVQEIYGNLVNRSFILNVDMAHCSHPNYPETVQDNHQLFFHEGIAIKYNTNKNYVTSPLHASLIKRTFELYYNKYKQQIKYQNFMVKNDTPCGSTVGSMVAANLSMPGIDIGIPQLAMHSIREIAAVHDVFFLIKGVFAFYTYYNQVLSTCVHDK
Sequence of Albumin (P02769 whole entry): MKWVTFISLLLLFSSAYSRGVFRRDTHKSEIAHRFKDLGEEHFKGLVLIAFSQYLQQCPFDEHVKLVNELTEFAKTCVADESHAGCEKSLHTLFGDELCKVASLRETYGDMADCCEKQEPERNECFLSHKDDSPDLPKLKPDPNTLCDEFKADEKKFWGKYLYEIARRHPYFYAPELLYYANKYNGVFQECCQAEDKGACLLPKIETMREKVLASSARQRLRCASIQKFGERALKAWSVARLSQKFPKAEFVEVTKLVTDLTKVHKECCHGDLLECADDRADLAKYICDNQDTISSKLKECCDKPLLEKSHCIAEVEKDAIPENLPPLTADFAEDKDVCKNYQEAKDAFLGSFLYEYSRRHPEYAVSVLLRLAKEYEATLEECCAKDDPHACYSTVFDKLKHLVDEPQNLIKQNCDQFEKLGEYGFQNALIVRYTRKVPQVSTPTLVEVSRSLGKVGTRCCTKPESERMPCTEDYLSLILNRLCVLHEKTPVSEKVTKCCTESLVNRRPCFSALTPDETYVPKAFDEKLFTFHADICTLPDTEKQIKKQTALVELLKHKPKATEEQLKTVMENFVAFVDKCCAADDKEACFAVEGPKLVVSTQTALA

## O=C(NCc1ccc2c(c1)OCO2)C1CCN(S(=O)(=O)c2ccc(Br)s2)CC1
Aminopeptidase N
  IC50: 2.11 µM (active)
Aspartyl aminopeptidase
  IC50: > 73.5 µM (not active)
Procathepsin L
  IC50: > 59.6 µM (not active)

## O=C(Nc1cccc(S(=O)(=O)NC2=NCCC2)c1)c1cc(-c2ccco2)nc2ccccc12
[1]
  IC50: 3.71 µM (active)
Albumin
  IC50: > 94.1 µM (inactive)
[2]
  IC50: 22.7 µM (active)
[3]
  IC50: 1.09 µM (active)
[4]
  IC50: 9.01 µM (active)
[5]
  IC50: 4.26 µM (active)
Bcl-2-like protein 1
  IC50: > 109 µM (not active)

## CCN(CC)c1ccc(NC(=O)Nc2ccccc2)cc1
[6]
  IC50: 45 µM (active)
NADPH oxidase 1
  IC50: 0.176 µM (active)

## N=c1c(C(=O)NCc2ccc3c(c2)OCO3)cc2c(=O)n3ccccc3nc2n1Cc1cccnc1
Estrogen receptor beta [7]
  IC50: > 50 µM (not active)
[8]
  IC50: 17.1 µM (active)
Estrogen receptor beta [9]
  IC50: 5.48 µM (active)
[3]
  IC50: 4.3 µM (active)

## CN(CC(=O)NC(=O)NCc1ccco1)Cc1nc(O)c2ccccc2n1
Estrogen receptor
  IC50: 13.7 µM (active)

## COc1ccc(C2c3[nH]c4ccccc4c3CCN2C(=O)c2cc3ncccn3n2)c(F)c1 (stereo unspecified)
Vero
  IC50: 34.6 µM (active)
[10]
  IC50: > 100 µM (active)
[11]
  CC50: > 40 µM (active)
[12]
  IC50: > 100 µM (active)
